From paper PMC10052977, “α,ω-Diacyl-Substituted Analogues of Natural and Unnatural Polyamines: Identification of Potent Bactericides That Selectively Target Bacterial Membranes” (International Journal of Molecular Sciences, 2023)

Assays:
[1] = test system: Cryptococcus neoformans ATCC208821; test: Antifungal MIC, CO-ADD; type: cell-based; details: ATCC208821, Cryptococcus neoformans ATCC208821, mean (n = 2)
Description: (§1) For the antifungal assay, fungi strains were cultured for 3 days on YPD agar at 30 °C. A yeast suspension of 1 × 10^6 to 5 × 10^6 CFU/mL was prepared from five colonies. These stock suspensions were diluted with yeast nitrogen base (YNB) (Becton Dickinson, 233520) broth to a final concentration of 2.5 × 10^3 CFU/mL. […] Plates were covered and incubated at 35 °C for 36 h without shaking. C. albicans MICs were determined by measuring the absorbance at OD530. […] Fluconazole was used as a positive fungal inhibitor standard for C. albicans and C. neoformans. […] Quality control (QC) of the assays was determined by antimicrobial controls and Z’-factor (using positive and negative controls).

[2] = test system: Candida albicans ATCC90028; test: Antifungal MIC, CO-ADD; type: cell-based; details: mean (n = 2)
Description: as §1

[3] = test system: Escherichia coli ATCC 25922; test: MIC, CO-ADD broth microdilution; type: cell-based; details: ATCC25922, mean (n = 2)
[4] = test system: Klebsiella pneumoniae ATCC700603; test: MIC, CO-ADD broth microdilution; type: cell-based; details: mean (n = 2)
human red blood cells = test: Hemolytic assay; type: cell-based; details: mean (n = 2)
Description: Human whole blood was washed three times with 3 volumes of 0.9% NaCl and then resuspended in same to a concentration of 0.5 × 10^8 cells/mL, as determined by manual cell count in a Neubauer hemocytometer. The washed cells were then added to the 384-well compound-containing plates for a final volume of 50 μL. After a 10 min shake on a plate shaker, the plates were then incubated for 1 h at 37 °C. After incubation, the plates were centrifuged at 1000× g for 10 min to pellet cells and debris; 25 μL of the supernatant was then transferred to a polystyrene 384-well assay plate. Hemolysis was determined by measuring the supernatant absorbance at […] (OD405). The absorbance was measured using a Tecan M1000 Pro monochromator plate reader. HC10 and HC50 (concentration at 10% and 50% hemolysis, respectively) were calculated by curve fitting the inhibition values vs. log (concentration) using a sigmoidal dose–response function with variable fitting values for top, bottom and slope.

[5] = Cytotoxicity assay (resazurin); type: cell-based, human; details: human; HEK293 cells; mean (n = 2); highest dose tested 32 μg/mL; read-out: Cytotoxicity (concentration of compound at 50% cytotoxicity, IC50)
[6] = test system: Staphylococcus aureus ATCC 25923 or ATCC 29213; test: MIC, broth dilution (CA-SFM); type: cell-based; details: Staphylococcus aureus ATCC 25923 or ATCC 29213; mean (n = 3); read-out: MIC S. a
[7] = test system: Acinetobacter baumannii ATCC19606; test: MIC, CO-ADD broth microdilution; type: cell-based; details: mean (n = 2)
[8] = test system: Pseudomonas aeruginosa PAO1 or ATCC 27853; test: MIC, broth dilution (CA-SFM); type: cell-based; details: mean (n = 3)
MRSA ATCC 43300 = test: MIC, CO-ADD broth microdilution; type: cell-based, Staphylococcus aureus; details: for MIC: Staphylococcus aureus, MRSA ATCC 43300, mean (n = 2), read-out: MIC MRSA

SMILES | MIC [1] | MIC [2] | MIC [3] | MIC [4] | Hemolysis (HC10, concentration at 10% hemolytic activity) (human red blood cells) | IC50 at 20 h [5] | MIC [6] | MIC [7] | MIC [8] | melting point | MIC (MRSA ATCC 43300) | MIC ([7]; 18 h) | activity towards MRSA (MRSA ATCC 43300; MRSA)
Cl.Cl.S=C(NCCCNCCCCCCCNCCCNC(=S)NC(c1ccccc1)c1ccccc1)NC(c1ccccc1)c1ccccc1 [Compound 6c, N^1,N^7-Bis(3-(3-benzhydrylthioureido)propyl)heptane-1,7-diaminium chloride] | 0.65 µM | ≤ 0.33 µM | ≤ 0.33 µM | > 41.7 µM | ≤0.326 µM | > 41.7 µM | 65 µM | 2.6 µM | > 260 µM | 115 to 116 °C | ≤ 0.33 µM | – | –
Cl.Cl.S=C(NCCCNCCCCNCCCNC(=S)NC(c1ccccc1)c1ccccc1)NC(c1ccccc1)c1ccccc1 [Compound 6a, N^1,N^4-Bis(3-(3-benzhydrylthioureido)propyl)butane-1,4-diaminium chloride] | 11 µM | ≤ 0.34 µM | 2.8 µM | > 44.1 µM | 7.73 µM | > 44.1 µM | > 276 µM | – | 138 µM | 168 to 169 °C | ≤ 0.34 µM | ≤ 0.35 µM | –
Cl.Cl.S=C(NCCCNCCCCCCCCNCCCNC(=S)NC(c1ccccc1)c1ccccc1)NC(c1ccccc1)c1ccccc1 [Compound 6d, N^1,N^8-Bis(3-(3-benzhydrylthioureido)propyl)octane-1,8-diaminium chloride] | 20.5 µM | ≤ 0.32 µM | ≤ 0.32 µM | 40.9 µM | 2.07 µM | 10.1 µM | 6.25 µM | 5.1 µM | 100 µM | 113 to 115 °C | ≤ 0.32 µM | – | –
O=C(CC(c1ccccc1)c1ccccc1)NCCCNCCCCCCCCCCCCNCCCNC(=O)CC(c1ccccc1)c1ccccc1.O=C(O)C(F)(F)F.O=C(O)C(F)(F)F [Compound 15f, N^1,N^12-Bis(3-(3,3-diphenylpropanamido)propyl)dodecane-1,12-diaminium 2,2,2-trifluoroacetate] | ≤ 0.28 µM | 8.34 µM | 2.1 µM | > 33.4 µM | 1.17 µM | 5.46 µM | 1.56 µM | 1 µM | 200 µM | – | ≤ 0.26 µM | – | –
O=C(CCC(=O)NCCC(c1ccccc1)c1ccccc1)NCCCNCCCCCCCCCCNCCCNC(=O)CCC(=O)NCCC(c1ccccc1)c1ccccc1.O=C(O)C(F)(F)F.O=C(O)C(F)(F)F [Compound 16e, N^1,N^10-Bis(3-(4-((3,3-diphenylpropyl)amino)-4-oxobutanamido)propyl)decane-1,10-diaminium 2,2,2-trifluoroacetate] | ≤ 0.28 µM | 29.1 µM | 14.5 µM | 29.1 µM | 17.9 µM | 17.3 µM | 12.5 µM | 29.1 µM | 200 µM | – | ≤ 0.23 µM | – | –
O=C(CC(c1ccccc1)(c1ccccc1)c1ccccc1)NCCCNCCCCNCCCNC(=O)CC(c1ccccc1)(c1ccccc1)c1ccccc1.O=C(O)C(F)(F)F.O=C(O)C(F)(F)F [Compound 18a, N^1,N^4-Bis(3-(3,3,3-triphenylpropanamido)propyl)butane-1,4-diaminium 2,2,2-trifluoroacetate] | 32 µM | 8 µM | 0.5 µM | 32 µM | 1.58 µM | 18.3 µM | 3.12 µM | 4 µM | 25 µM | – | < 0.25 µM | – | –
Cl.Cl.S=C(NCCCNCCCCCCCCCCCCNCCCNC(=S)NC(c1ccccc1)c1ccccc1)NC(c1ccccc1)c1ccccc1 [Compound 6f, N^1,N^12-Bis(3-(3-benzhydrylthioureido)propyl)dodecane-1,12-diaminium chloride] | > 38.2 µM | ≤ 0.3 µM | 2.4 µM | > 38.2 µM | >38.2 µM | ≤ 0.298 µM | > 239 µM | > 38.2 µM | 120 µM | 103 to 104 °C | ≤ 0.3 µM | – | –
O=C(O)CCC(=O)NCCCc1ccccc1 [Compound 8, 4-oxo-4-((3-phenylpropyl)amino)butanoic acid] | – | – | – | – | – | – | – | – | – | 94 to 95 °C | – | – | –
O=C(CCc1ccccc1)NCCCNCCCCCCCCCCCCNCCCNC(=O)CCc1ccccc1.O=C(O)C(F)(F)F.O=C(O)C(F)(F)F [Compound 13f, N^1,N^12-Bis(3-(3-phenylpropanamido)propyl)dodecane-1,12-diaminium 2,2,2-trifluoroacetate] | > 39.7 µM | > 39.7 µM | > 39.7 µM | > 39.7 µM | >39.7 µM | > 39.7 µM | 50 µM | > 39.7 µM | 300 µM | – | 19.8 µM | – | weak
O=C(CCC(=O)NCCC(c1ccccc1)c1ccccc1)NCCCNCCCCCCCNCCCNC(=O)CCC(=O)NCCC(c1ccccc1)c1ccccc1.O=C(O)C(F)(F)F.O=C(O)C(F)(F)F [Compound 16c, N^1,N^7-Bis(3-(4-((3,3-diphenylpropyl)amino)-4-oxobutanamido)propyl)heptane-1,7-diaminium 2,2,2-trifluoroacetate] | 30.2 µM | > 30.2 µM | > 30.2 µM | > 30.2 µM | >30.2 µM | > 30.2 µM | 24 µM | > 30.2 µM | 480 µM | – | ≤ 0.24 µM | – | –
O=C(CCc1ccccc1)NCCCNCCCCCCNCCCNC(=O)CCc1ccccc1.O=C(O)C(F)(F)F.O=C(O)C(F)(F)F [Compound 13b, N^1,N^6-Bis(3-(3-phenylpropanamido)propyl)hexane-1,6-diaminium 2,2,2-trifluoroacetate] | > 44.3 µM | > 44.3 µM | > 44.3 µM | > 44.3 µM | >44.3 µM | > 44.3 µM | > 277 µM | > 44.3 µM | > 277 µM | – | > 44.3 µM | – | –
O=C(O)CCC(=O)NCCC(c1ccccc1)c1ccccc1 [Compound 10, 4-((3,3-diphenylpropyl)amino)-4-oxobutanoic acid] | – | – | – | – | – | – | – | – | – | 134 to 137 °C | – | – | –
O=C(CCC(=O)NCCC(c1ccccc1)c1ccccc1)NCCCNCCCCCCCCNCCCNC(=O)CCC(=O)NCCC(c1ccccc1)c1ccccc1.O=C(O)C(F)(F)F.O=C(O)C(F)(F)F [Compound 16d, N^1,N^8-Bis(3-(4-((3,3-diphenylpropyl)amino)-4-oxobutanamido)propyl)octane-1,8-diaminium 2,2,2-trifluoroacetate] | > 29.8 µM | > 29.8 µM | > 29.8 µM | > 29.8 µM | >29.8 µM | > 29.8 µM | 12.5 µM | > 29.8 µM | 300 µM | – | ≤ 0.23 µM | – | –
O=C(CCC(=O)NCCCc1ccccc1)NCCCNCCCCNCCCNC(=O)CCC(=O)NCCCc1ccccc1.O=C(O)C(F)(F)F.O=C(O)C(F)(F)F [Compound 14a, N^1,N^4-Bis(3-(4-oxo-4-((3-phenylpropyl)amino)butanamido)propyl)butane-1,4-diaminium 2,2,2-trifluoroacetate] | > 37 µM | > 37 µM | > 37 µM | > 37 µM | >37 µM | > 37 µM | 100 µM | > 37 µM | > 200 µM | – | > 37 µM | – | –
